Assay [1] deals with T1, Prostaglandin G/H synthase 2 (Homo sapiens, UniProt P35354).
T1 sequence (P35354 whole entry): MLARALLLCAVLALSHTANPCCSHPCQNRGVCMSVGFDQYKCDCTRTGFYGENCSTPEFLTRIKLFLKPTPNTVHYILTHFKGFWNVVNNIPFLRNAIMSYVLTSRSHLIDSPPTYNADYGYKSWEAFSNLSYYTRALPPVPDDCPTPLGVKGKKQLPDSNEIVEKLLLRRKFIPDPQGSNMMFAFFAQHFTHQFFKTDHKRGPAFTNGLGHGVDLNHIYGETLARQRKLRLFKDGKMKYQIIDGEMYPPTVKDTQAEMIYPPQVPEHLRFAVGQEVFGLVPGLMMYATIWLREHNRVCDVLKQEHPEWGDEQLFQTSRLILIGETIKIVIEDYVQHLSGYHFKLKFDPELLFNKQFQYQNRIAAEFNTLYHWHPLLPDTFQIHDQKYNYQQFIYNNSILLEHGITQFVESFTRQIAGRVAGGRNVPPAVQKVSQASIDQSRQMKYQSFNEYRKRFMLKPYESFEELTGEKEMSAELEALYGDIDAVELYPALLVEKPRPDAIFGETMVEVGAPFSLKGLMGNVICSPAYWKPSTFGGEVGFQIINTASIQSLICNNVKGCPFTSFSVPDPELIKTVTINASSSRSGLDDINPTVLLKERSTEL
Description: Inhibition of human COX2 in human whole blood

Assay [2] concerns the target T1, Prostaglandin G/H synthase 2. The source holds these as a separate data set.
The species entered for assay [3] is Homo sapiens. Kind of assay: Ratio of IC50 for human COX1 to IC50 for human COX2 in human whole blood. In kind it is tissue-based.
Assay [4] is filed under the species Homo sapiens. Kind of assay: Ratio of IC50 for human COX1 to IC50 for human COX2.

pIC50: −log10 of the molar value.

Broadly, the pIC50 is the IC50 on a negative log10 scale, so that one unit is a factor of ten. A low value points to a large IC50.

`NS(=O)(=O)c1ccc(-c2nc(NCc3ccsc3)cc(C(F)(F)F)n2)cc1`: the negative-log IC50 (pIC50) is 7.28 in assay [1] and 7.14 in assay [2]. Moreover, the values for the Ratio IC50 in the assay filed under Homo sapiens [3] and in the assay filed under Homo sapiens [4] were over 193 and 1390, respectively.

Turning to `CS(=O)(=O)c1ccc(-c2nc(NCC3CCCC3)cc(C(F)(F)F)n2)cc1`, the negative logarithm of the IC50 (pIC50) in assay [1] and in assay [2] was under 5.00 throughout. The Ratio IC50 in the assay listed under Homo sapiens [3] and in the assay listed under Homo sapiens [4] was over 1 throughout.

Regarding `CS(=O)(=O)c1ccc(-c2nc(NC3CCCC3)cc(C(F)(F)F)n2)cc1`, the negative-log IC50 (pIC50) in assay [1] was 6.32; in assay [2], 6.72. The Ratio IC50 was 80 in the assay filed under Homo sapiens [3] and over 522 in the assay listed under Homo sapiens [4].

`NS(=O)(=O)c1ccc(-c2nc(NCC3CCCCC3)cc(C(F)(F)F)n2)cc1`: the results for the negative-log IC50 (pIC50) in assay [1] and in assay [2] were 6.10 and 6.15, respectively. Besides, the Ratio IC50 in the assay listed under Homo sapiens [3] was over 124; in the assay filed under Homo sapiens [4] it was over 140.

Regarding `CS(=O)(=O)c1ccc(-c2nc(NCc3ccc4ccccc4c3)cc(C(F)(F)F)n2)cc1`, the pIC50 in assay [1] and in assay [2] was under 5.00 in each case. Also, the Ratio IC50 in the assay listed under Homo sapiens [3] and in the assay listed under Homo sapiens [4] was over 1 throughout.

Take `NS(=O)(=O)c1ccc(-c2nc(NCc3ccccn3)cc(C(F)(F)F)n2)cc1`: the pIC50 in assay [1] was under 5.00; in assay [2], 5.52. Further, the Ratio IC50 in the assay listed under Homo sapiens [3] was over 10; in the assay listed under Homo sapiens [4] it was over 33.

For `CS(=O)(=O)c1ccc(-c2nc(NCc3csc4ccccc34)cc(C(F)(F)F)n2)cc1`, the pIC50 is under 5.00 in assay [1] and 5.00 in assay [2]. Further, the Ratio IC50 in the assay listed under Homo sapiens [3] and in the assay filed under Homo sapiens [4] was over 1 throughout.

For `Cn1cccc1CNc1cc(C(F)(F)F)nc(-c2ccc(S(C)(=O)=O)cc2)n1`, the pIC50 in assay [1] is 7.54; in assay [2] it was 6.75. In addition, the Ratio IC50 in the assay listed under Homo sapiens [3] was over 3470; in the assay listed under Homo sapiens [4], over 562.

Take `CS(=O)(=O)c1ccc(-c2nc(NCc3ccco3)cc(C(F)(F)F)n2)cc1`: the negative logarithm of the IC50 (pIC50) in assay [1] was 6.85; in assay [2], 6.70. The Ratio IC50 was over 497 in the assay filed under Homo sapiens [3] and over 498 in the assay filed under Homo sapiens [4].

With `NS(=O)(=O)c1ccc(-c2nc(NCc3cc4ccccc4s3)cc(C(F)(F)F)n2)cc1`, the negative logarithm of the IC50 (pIC50) was 6.85 in assay [1] and 7.82 in assay [2]. Also, the values for the Ratio IC50 in the assay filed under Homo sapiens [3] and in the assay listed under Homo sapiens [4] were over 71 and 6570, respectively.

For `NS(=O)(=O)c1ccc(-c2nc(NCc3ccco3)cc(C(F)(F)F)n2)cc1`, the figures for the negative-log IC50 (pIC50) in assay [1] and in assay [2] were 5.55 and 7.84, respectively. Further, the Ratio IC50 is over 3 in the assay listed under Homo sapiens [3] and over 6920 in the assay filed under Homo sapiens [4].

Regarding `NS(=O)(=O)c1ccc(-c2nc(NCc3ccccc3)cc(C(F)(F)F)n2)cc1`, the pIC50 was under 5.00 in assay [1] and 5.40 in assay [2]. For the same compound, the Ratio IC50 is over 5 in the assay filed under Homo sapiens [3] and over 25 in the assay filed under Homo sapiens [4].

Regarding `CS(=O)(=O)c1ccc(-c2nc(NCC3CC=CCC3)cc(C(F)(F)F)n2)cc1` (stereo not given), the pIC50 in assay [1] was 7.48; in assay [2], 7.37. Besides, the figures for the Ratio IC50 in the assay filed under Homo sapiens [3] and in the assay filed under Homo sapiens [4] were over 304 and over 2320, respectively.

Regarding `NS(=O)(=O)c1ccc(-c2nc(NCc3cccs3)cc(C(F)(F)F)n2)cc1`, the negative-log IC50 (pIC50) was 6.80 in assay [1] and 7.65 in assay [2]. Further, the Ratio IC50 in the assay filed under Homo sapiens [3] was over 634; in the assay listed under Homo sapiens [4], 3530.

Regarding `NS(=O)(=O)c1ccc(-c2nc(NCc3ccncc3)cc(C(F)(F)F)n2)cc1`, the pIC50 is 5.48 in assay [1] and 5.72 in assay [2]. The Ratio IC50 is over 3 in the assay filed under Homo sapiens [3] and over 52 in the assay listed under Homo sapiens [4].

The record behind these values is ChEMBL document CHEMBL1143107 (Bioorg Med Chem, 2008).
